Assay results: PubChem BioAssay AID179 (DTP/NCI, 2004)
Active and inactive are the calls of the source.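 How the source made its calls: active means compounds giving half or more protection of infected cells from virus-caused growth loss, again on retest; inactive means the rest.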 Where a SMILES comes first, the peptide text is derived from it.

System: CEM cells HIV-1 protection, formazan growth assay
Assay: NCI AIDS Antiviral Assay
Conditions: for IC50: measured here: growth of uninfected CEM cells
In short: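 Protection of CEM cells against HIV-1 measured as cell growth via soluble formazan read-out, with five concentrations tested on both infected and uninfected cells; failure to protect may reflect toxicity.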

SMILES	EC50	IC50	outcome
CCCC(=O)N1CCN(c2ccc3c(c2)OC(C)O3)CC1 (stereo not given)	> 200 µM	> 200 µM	
N#CC(C(N)=O)C(CC(=O)c1ccccc1)c1ccccc1 (stereo not given)	> 200 µM	145 µM	
COC(=O)NC12CC3CC(C(C)O1)C2N(Cc1ccccc1)C3 (stereo not given)	> 200 µM	> 200 µM	
O=C(NCCCCN1CCCCCC1)C1c2ccccc2-c2ccccc21	> 200 µM	91.2 µM	
CC(=O)OC1CC(OC(C)=O)[C@@]2(C)C[C@@H]3C(C)C(=O)O[C@H]3CC(C)C12 (stereo not given in full)	> 74.1 µM	42.7 µM	
[CH2+][B-]1(C)n2cc(Br)c[n+]2[B-](C)(C)[n+]2cc(Br)cn21	> 200 µM	105 µM	
CC(=O)Nc1c(C)cc2c(nc3n2CCC3OC(C)=O)c1[N+](=O)[O-] (stereo not given)	> 200 µM	> 200 µM	
CN1C(=O)CC2CCCN2C1=O (stereo not given)	> 200 µM	> 200 µM	
CN1C(=O)C2CCC1n1c(=O)n(-c3ccccc3)c(=O)n12 (stereo not given)			inactive
Cc1cn(C2CC(C/C=[N+](\[O-])CC3OC(n4cc(C)c(=O)[nH]c4=O)CC3O[Si](C)(C)C(C)(C)C)C(CO[Si](C)(C)C(C)(C)C)O2)c(=O)[nH]c1=O (stereo not given)	> 200 µM	36.3 µM	
Cc1cc(S(=O)(=O)Nc2n[nH]c(N)n2)c(S)cc1Cl	> 200 µM	> 200 µM	
COc1cc(-c2ccc(Nc3ccccc3C(=O)O)c(OC)c2)ccc1Nc1ccccc1C(=O)O	> 200 µM	0.692 µM	
O=C(O)CN1CCNCCN(CP(=O)(O)O)CC1	> 200 µM	10.5 µM	
CCOC(=O)c1c(NC(=O)c2cccs2)sc2c1CCC2	195 µM	> 200 µM	
COc1cccc2c(Nc3ccc(S(=O)(=O)N=C(N)N)cc3)c3ccc([N+](=O)[O-])cc3nc12	> 200 µM	11 µM	
CC(C)CC(N)C(=O)NC(CC(=O)O)C(=O)NC(CCCCN)C(=O)NC(C)C(=O)NC(CO)C(=O)NC(Cc1ccc(O)cc1)C(=O)NC(CO)C(=O)NC(C(=O)NC(CC(N)=O)C(=O)NC(Cc1cnc[nH]1)C(=O)NC(CC(C)C)C(=O)O)C(C)O (stereo not given) (H-LDKASYSTNHL-OH; configuration not given here)	> 50.1 µM	> 50.1 µM	inactive
C[N+]1([O-])[C@H]2CC(OC(=O)[C@H](CO)c3ccccc3)C[C@H]1[C@H]1O[C@H]12 (stereo not given in full)	> 200 µM	> 200 µM	
C/C(=C\c1ccccc1)n1c(=O)cc(C)n1C	> 200 µM	> 200 µM	
N#CC(C(=O)/C(=N\Nc1nc(=S)[nH]n1N)C(C#N)c1ccc(Cl)cc1)c1ccc(Cl)cc1 (stereo not given)	> 53.7 µM	> 53.7 µM	
Oc1ccc(Cn2c(-c3ccc(O)cc3)nc3ccccc32)cc1	> 794 µM	> 794 µM	
CN(C)C(=O)/N=C1\SC(=Nc2ccccc2)C(=Nc2ccccc2)N1c1ccc([N+](=O)[O-])cc1			inactive

SMILES	EC50	IC50	outcome
C=Cc1cncc(C#N)c1CCc1c(C#N)cncc1C=C	> 34.7 µM	> 34.7 µM	
N#Cc1ccccc1NC(=O)C(=O)C(C(=O)c1ccccc1-c1ccccc1)C1OC(=O)c2ccccc21 (stereo not given)	> 52.5 µM	26.3 µM	
O=C(Nc1ccccc1C(F)(F)F)OCCN1CCNC1=S	> 200 µM	> 200 µM	
[Au+].[Au+].[Au+].[c-]1nccn1Cc1ccccc1.[c-]1nccn1Cc1ccccc1.[c-]1nccn1Cc1ccccc1	> 3.55 µM	> 3.55 µM	
O=C(O)/C=C/c1ccc(O)cc1	> 200 µM	> 200 µM	
C/C(=N\NC(=S)NC1CCCC1)c1ccccn1	> 2 µM	0.0151 µM	
C1CN2C(=N1)N1CCN=C1N1CCN=C21	> 174 µM	> 174 µM	
O=Cc1ccc2c(c1)C(O)NC(=O)O2 (stereo not given)	28.2 µM	72.4 µM	
Fc1ccccc1CN1COc2c(cc(Cl)c3cccnc23)C1	> 200 µM	3.09 µM	
NS(=O)(=O)c1ccc(NC(=O)c2cccnc2Nc2cccc(Cl)c2)cc1			inactive
c1ccc(-c2nc3nc4ccccc4nc3nc2-c2ccccn2)nc1	> 53.7 µM	10.7 µM	
CCCCCCCCCCCCCCCCCC(=O)OC[C@H](COP(=O)(O)OCCNC(=O)CCC(=O)NCCC=C(c1cc(Cl)c(OC)c(C(=O)OC)c1)c1cc(Cl)c(OC)c(C(=O)OC)c1)OC(=O)CCCCCCCCCCCCCCCCC	> 50.1 µM	> 50.1 µM	
Cc1cn(C2OC(COC(=O)c3ccccc3)C(OC(=O)c3ccccc3)C2I)c(=O)[nH]c1=O (stereo not given)	> 200 µM	37.2 µM	
Nc1ccc(N=O)c(N)n1	> 200 µM	> 200 µM	
COc1ccc(NC(=O)CC(=O)N2N=C(N(CCC#N)c3ccc(Cl)cc3)CC2c2ccccc2)cc1 (stereo not given)	> 36.3 µM	> 36.3 µM	
CC(=O)On1c(-c2ccccc2-c2nc3ccccc3n2OC(C)=O)nc2ccccc21	> 200 µM	77.6 µM	
CC1(C)OC2C(O)CN3CCS[C@H]3C2O1 (stereo not given in full)	> 200 µM	> 200 µM	
NCCCNCCCCNCCCNCc1c2ccccc2c(CNCCCNCCCCNCCCN)c2ccccc12	> 1820 µM	3.8 µM	
Cc1cc(S(=O)(=O)Nc2n[nH]c(Nc3ccccc3)n2)c(S)cc1Cl	170 µM	275 µM	
CCOC(=O)C(=O)Nc1ccc(C)cc1C	> 1120 µM	646 µM	
